“And” between values parts separate entries of the source, which are not always exact repeats. Identical values can stand only once. Counter-ions that a name gives are not always drawn.

Consider `N=C(NCCCCCCCCCCCC(=O)N1CCNCC1)NC(=O)c1nc(Cl)c(N)nc1N` (as salt: hydrochloride) [ALB 27069, N-(3,5-Diamino-6-chloropyrazine-2-carbonyl)-N′-(12-oxo-12-piperazin-1-yl-dodecyl)guanidine dihydrochloride], for which the melting point lay in the range of 148 to 150 °C.

In the case of `CN(C)CCCNC(=O)CCCCCCCCCCN(C(=N)N)C(=O)c1nc(Cl)c(N)nc1N` (as salt: salt) [ALB 27160, 11-[N-(3,5-Diamino-6-chloropyrazine-2-carbonyl)guanidino]undecanoic acid (3-dimethylaminopropyl)amide], the melting point was 52 to 56 °C.

With `N=C(N)N(CCCCCCCCCCC(=O)O)C(=O)c1nc(Cl)c(N)nc1N` [ALB 26795, 11-[N-(3,5-Diamino-6-chloropyrazine-2-carbonyl)guanidino]undecanoic acid], the melting point is 181 to 191 °C.

Regarding `N=C(NCCCCCCCCCCCC(=O)O)NC(=O)c1nc(Cl)c(N)nc1N` [ALB 26799, 12-[N′-(3,5-diamino-6-chloropyrazine-2-carbonyl)guanidino]-dodecanoic acid], the melting point is 194 to 196 °C and 192 to 194 °C.

`CN(C)CCCNC(=O)CCCCCCCCCCCNC(N)=NC(=O)c1nc(Cl)c(N)nc1N` [ALB 26982, 12-[N′-(3,5-Diamino-6-chloropyrazine-2-carbonyl)guanidino]dodecanoic acid (3-dimethylaminopropyl)amide] returned a melting point of 82 to 84 °C.

With `NC(=NC(=O)c1nc(Cl)c(N)nc1N)NCCCCCCCCCCCC(=O)Nc1ncc[nH]1` [ALB 27070, 12-[N′-(3,5-Diamino-6-chloropyrazine-2-carbonyl)guanidino]dodecanoic acid (1H-imidazol-2-yl)amide], the melting point lay in the range of 102 to 104 °C.

In turn, `N=C(N)N(CCCCCCCCCCC(N)=O)C(=O)c1nc(Cl)c(N)nc1N` [ALB 27317, 11-[N-(3,5-Diamino-6-chloropyrazine-2-carbonyl)guanidino]undecanoic acid amide] gave a melting point of 69 to 72 °C.

For orientation: melting point means the temperature, or range, at which the solid turns liquid.
